How the values were obtained:
DPP-4 = target: T1, DPP-4 (Homo sapiens, UniProt P27487); assay: DPP-4 Inhibitor Screening Assay (fluorescence-based, Gly-Pro-AMC substrate); assay type: biochemical; details: mean ± SD; for inhibition at 100 µM: compound at 100 µM, triplicate; for IC50: five concentrations 10^−1 to 10^−5 µM, read-out: IC50 for DPP-4 inhibition
T1 construct: purchased Cayman Chemicals, Ann Arbor, MI, USA
Method: This assay kit allows DPP-4 measurement using Gly-Pro-Aminomethylcoumarin (AMC) as a fluorogenic substrate. The free AMC group is released through the cleavage of the peptide bond by DPP leading to fluorescence that can be examined using appropriate excitation and emission wavelengths. Briefly, the experiment was performed triplicate in a white flat bottom 96 well plate. Thirty microlitres of assay buffer, 10 µL of DPP-4 enzyme, 10 µL of dimethyl sulfoxide (DMSO), and 50 µL of DPP substrate were added to 100% initial activity wells. Forty microlitres of assay buffer, 10 µL of DMSO, and 50 µL of DPP substrate were added to background wells. Thirty microlitres of assay buffer, 10 µL of DPP-4 enzyme, 10 µL of sample, and 50 µL of DPP substrate were added to inhibitor wells. […] The plate was incubated for 30 min at 37 °C, and fluorescence measurements were analyzed using an excitation wavelength of 360/40 nm and an emission wavelength of 460/40 nm in a multi-mode plate reader (Synergy HTX S1LFA, BioTek Instruments, Winooski, VT, USA). All assays were performed in triplicate. The fluorescence of the background wells was subtracted from all other wells before the calculations. The per cent inhibition was determined by the following formula in equation 1:Inhibition% = [(Initial activity − Inhibitor)/Initial Activity] × 100(1)

[1] = MTT cytotoxicity assay on NIH/3T3 cells; assay type: cell-based; details: mouse, NIH/3T3 mouse embryonic fibroblast cells, 24 h incubation, 31.25-500 µM, read-out: IC50 cytotoxicity towards NIH/3T3 cell line
Method: NIH/3T3 mouse embryonic fibroblast (normal) cells (ATCC® CRL-1658™) were grown in RPMI 1640 medium (Sigma-Aldrich, St. Louis, MO, USA) supplemented with 2 mM L-glutamine (Gibco, Paisley, UK), 10% fetal bovine serum (Gibco, Paisley, UK) and 1% penicillin/streptomycin (Gibco, Paisley, UK) at 37 °C in a humidified incubator with a 5% CO2 atmosphere. Compounds 2a–o were dissolved in DMSO (Sigma-Aldrich, St. Louis, MO, USA) and diluted to required concentrations with a fresh medium. The control group (solvent control) was prepared with a medium containing 0.1% DMSO. […]
In order to determine IC50 concentrations of compounds 2a–o, cell viability was determined by MTT assay. […] The absorbance values were measured at 540 nm using a Cytation 3 Cell Imaging Multi-Mode Reader (BioTek, Winooski, VT, USA). Cell survival rates were expressed as the percentage of the DMSO (0.1%) solvent control and IC50 concentrations were calculated according to the analysis result.

T1 sequence (P27487 whole entry): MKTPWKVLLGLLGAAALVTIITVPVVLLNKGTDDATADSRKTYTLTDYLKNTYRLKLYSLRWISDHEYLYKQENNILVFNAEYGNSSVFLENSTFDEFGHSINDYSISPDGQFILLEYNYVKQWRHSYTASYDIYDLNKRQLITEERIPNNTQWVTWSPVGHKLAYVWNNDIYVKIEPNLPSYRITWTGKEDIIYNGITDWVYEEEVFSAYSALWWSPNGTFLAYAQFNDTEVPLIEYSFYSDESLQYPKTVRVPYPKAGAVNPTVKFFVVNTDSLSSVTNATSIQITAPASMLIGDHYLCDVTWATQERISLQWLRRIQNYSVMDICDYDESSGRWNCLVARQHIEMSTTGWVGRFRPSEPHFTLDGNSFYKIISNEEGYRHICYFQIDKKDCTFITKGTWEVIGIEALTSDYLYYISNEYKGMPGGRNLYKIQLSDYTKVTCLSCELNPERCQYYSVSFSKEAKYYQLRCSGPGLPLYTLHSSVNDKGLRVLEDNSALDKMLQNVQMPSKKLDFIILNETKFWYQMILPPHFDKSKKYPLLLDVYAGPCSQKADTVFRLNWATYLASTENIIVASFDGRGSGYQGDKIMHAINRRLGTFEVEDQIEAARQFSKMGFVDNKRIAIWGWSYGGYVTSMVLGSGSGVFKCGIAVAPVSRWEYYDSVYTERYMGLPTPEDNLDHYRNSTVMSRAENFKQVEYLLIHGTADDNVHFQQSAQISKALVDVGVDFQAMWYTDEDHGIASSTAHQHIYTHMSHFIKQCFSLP

SMILES	inhibition at 100 µM (DPP-4)	IC50 (DPP-4)	IC50 at 24 h [1]
S=C(N/N=C/c1ccccc1)Nc1ccc(-n2cccn2)cc1 [Compound 2a, [4-(1H-Pyrazol-1-yl)phenyl]-1-(benzylidene)thiosemicarbazide]	20.7 ± 1.82%		
O=[N+]([O-])c1ccc(/C=N/NC(=S)Nc2ccc(-n3cccn3)cc2)cc1 [Compound 2b, [4-(1H-Pyrazol-1-yl)phenyl]-1-(4-nitrobenzylidene)thiosemicarbazide]	35.5 ± 1.75%		
N#Cc1ccc(/C=N/NC(=S)Nc2ccc(-n3cccn3)cc2)cc1 [Compound 2c, [4-(1H-Pyrazol-1-yl)phenyl]-1-(4-cyanobenzylidene)thiosemicarbazide]	28 ± 1.63%		
Fc1ccc(/C=N/NC(=S)Nc2ccc(-n3cccn3)cc2)cc1 [Compound 2d, [4-(1H-Pyrazol-1-yl)phenyl]-1-(4-fluorobenzylidene)thiosemicarbazide]	27.3 ± 2.03%		
S=C(N/N=C/c1ccc(Cl)cc1)Nc1ccc(-n2cccn2)cc1 [Compound 2e, [4-(1H-Pyrazol-1-yl)phenyl]-1-(4-chlorobenzylidene)thiosemicarbazide]	38.4 ± 2.14%		
S=C(NN=Cc1ccc(Br)cc1)Nc1ccc(-n2cccn2)cc1 [Compound 2f, 4-[4-(1H-pyrazol-1-yl)phenyl]-1-(4-bromobenzylidene)thiosemicarbazide]		1.27 ± 0.264 nM	> 500000 nM
FC(F)(F)c1ccc(/C=N/NC(=S)Nc2ccc(-n3cccn3)cc2)cc1 [Compound 2g, [4-(1H-Pyrazol-1-yl)phenyl]-1-(4-trifluoromethylbenzylidene)thiosemicarbazide]	> 60%	4.78 ± 0.296 nM	
Cc1ccc(/C=N/NC(=S)Nc2ccc(-n3cccn3)cc2)cc1 [Compound 2h, [4-(1H-Pyrazol-1-yl)phenyl]-1-(4-methylbenzylidene)thiosemicarbazide]	53.2 ± 3.1%		
COc1ccc(/C=N/NC(=S)Nc2ccc(-n3cccn3)cc2)cc1 [Compound 2i, [4-(1H-Pyrazol-1-yl)phenyl]-1-(4-methoxybenzylidene)thiosemicarbazide]	> 60%	43.31 ± 0.372 nM	
CS(=O)(=O)c1ccc(/C=N/NC(=S)Nc2ccc(-n3cccn3)cc2)cc1 [Compound 2j, [4-(1H-Pyrazol-1-yl)phenyl]-1-(4-methylsulfonylbenzylidene)thiosemicarbazide]	59.8 ± 1.13%		
CSc1ccc(/C=N/NC(=S)Nc2ccc(-n3cccn3)cc2)cc1 [Compound 2k, [4-(1H-Pyrazol-1-yl)phenyl]-1-(4-methylthiobenzylidene)thiosemicarbazide]	> 60%	22.7 ± 0.301 nM	
CN(C)c1ccc(/C=N/NC(=S)Nc2ccc(-n3cccn3)cc2)cc1 [Compound 2l, [4-(1H-Pyrazol-1-yl)phenyl]-1-(4-dimethylaminobenzylidene)thiosemicarbazide]	57.3 ± 1.04%		
CC(C)c1ccc(/C=N/NC(=S)Nc2ccc(-n3cccn3)cc2)cc1 [Compound 2m, [4-(1H-Pyrazol-1-yl)phenyl]-1-(4-isopropylbenzylidene)thiosemicarbazide]	47.4 ± 1.29%		
CC(C)(C)c1ccc(/C=N/NC(=S)Nc2ccc(-n3cccn3)cc2)cc1 [Compound 2n, [4-(1H-Pyrazol-1-yl)phenyl]-1-(4-tert-butylbenzylidene)thiosemicarbazide]	28.6 ± 1.76%		
S=C(N/N=C/c1ccc(-c2ccccc2)cc1)Nc1ccc(-n2cccn2)cc1 [Compound 2o, [4-(1H-Pyrazol-1-yl)phenyl]-1-(4-phenylbenzylidene)thiosemicarbazide]	> 60%	18.1 ± 0.311 nM	

From PMC7662656, “Pyrazole Incorporated New Thiosemicarbazones: Design, Synthesis and Investigation of DPP-4 Inhibitory Effects” (Molecules, 2020)
